Key:
[1] = molecular target: T1, RIPK1 (Homo sapiens, UniProt Q13546); assay: Activation of overexpressed Flag-RIPK1 in HEK293T cells (p-S166); type: cell-based; settings: 10 μM, 12 h
T1 construct: expressed in transfected cells; host or cells: HEK293T
Method: The activation of RIPK1 was determined by immunoblotting using p-S166 RIPK1 antibody.

[2] = tested on: H4 cells; assay: Long-lived protein degradation assay; type: cell-based; settings: 10 μM, 6 h
Method: The rates of long-lived protein turnover in H4 cells treated with indicated compounds (10 μM, 6 h); rapamycin as positive control. Values expressed as fold changes relative to normal control cells. Mean ±s.e.m. from 4 independent experiments (n=4). One-way ANOVA, post hoc Dunnett's test. **P=0.002, 0.0023 (left to right); *P=0.0229; n.s. not significant (P=0.8669).
H4 cells were cultured with L-[3,4,5-^3H(N)]-leucine (0.1 μCi/ml) (PerkinElmer Life Sciences) for 24 h and chased in media with nonradioactive leucine for 18 h to let the degradation of short-lived proteins happen. Then the media was changed and incubated for additional 6 h along with different compounds (10 μM Apt-1, 10 μM ICCB-19, 10 μM ICCB-19i, 1 μM rapamycin). The media were recovered and treated with 10% trichloroacetic acid to separate trichloroacetic acid-soluble (amino acids) and trichloroacetic acid-insoluble (proteins) fractions. The cells were completely dissolved with 1N NaOH. Radioactivity was measured with a liquid scintillation analyzer (PerkinElmer). Long-lived protein degradation was calculated by dividing trichloroacetic acid-soluble radioactivity in the media by total radioactivity detected in the cells and media. The values were expressed as changes in fold from the value obtained in control cells.

[3] = molecular target: T2, TRADD-N (Homo sapiens, UniProt Q15628); assay: STD-NMR binding to TRADD-N; settings: 1 mM compound, 13 μM TRADD-N
T2 construct: expression constructs encoding Flag-TRADD-N(1-179) and HA-TRADD-C(180-312); His (N); made in house
T2 sequence (Q15628 1-179): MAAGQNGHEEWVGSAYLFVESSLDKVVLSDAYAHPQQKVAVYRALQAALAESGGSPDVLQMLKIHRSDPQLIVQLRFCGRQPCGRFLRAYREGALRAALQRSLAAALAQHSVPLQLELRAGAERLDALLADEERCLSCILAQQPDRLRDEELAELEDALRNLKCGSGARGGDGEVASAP
Method: The on-resonance irradiation of TRADD-N was performed at a chemical shift of −0.5 ppm, whereas the off-resonance irradiation was conducted at 37 ppm. Spectra were acquired using the following parameters: spectral window of 6.4 kHz, number of scans at 320, acquisition time of 2 s, and repetition time of 3 s. The decrease in signal intensity in STD spectrum, resulting from the transfer of saturation from the protein to the ligand, is evaluated by subtracting the on-resonance spectrum from the off-resonance spectrum. This subtraction yields a positive signal from a bound ligand. The asterisks indicate the signals of the compounds.
This saturation quickly propagates throughout the protein by spin diffusion and is transferred to the ligand, which only occurs if it is bound, leading to reduced intensities of the ligand. The STD spectra were acquired on a 400 MHz spectrometer (ICCB-19 and Apt-1) or 800 MHz spectrometer (ICCB-19i). The samples for STD NMR were prepared as 13 μM TRADD-N or TRADD-N(G121A) with 1 mM Apt-1, ICCB-19 or ICCB-19i in 0.5 mL of PBS in D2O (10%). […] The decrease in signal intensity in STD spectrum, resulting from the transfer of saturation from the protein to the ligand, is evaluated by subtracting the on-resonance spectrum from the off-resonance spectrum.

[4] = molecular target: T3, TRADD-N and TRADD-C (Homo sapiens, UniProt Q15628); assay: NanoBiT protein-protein interaction assay TRADD-N / TRADD-C; type: cell-based; settings: 4 h
T3 construct: expression constructs encoding Flag-TRADD-N(1-179) and HA-TRADD-C(180-312); expressed in transfected cells; host or cells: HEK293T
Method: Constructs were made encoding LgBiT and SmBiT fused to the N and C termini of TRADD-N and TRADD-C, respectively. HEK293T cells were transfected with these two plasmids for 24 h and then treated with indicated compounds for 4 h. The luminescence indicating the interaction of TRADD-N and TRADD-C was measured using Nano-Glo Live Cell Reagent. Mean ±s.d. from quintuplicates (n=5).
The Nano-Glo Live Cell assay kit (Promega) was used as follows: HEK293T cells were seeded at 7.5×10^3 cells per well in a white, clear-bottom 96-well plate 12 h before transfection (10 ng LgBiT-fused construct and 10 ng SmBiT-fused construct). After 24 h incubation, medium was removed and replaced with 100 μl Opti-MEM medium for 1 h at 37C. The Nano-Glo reagent was prepared as per manufacturer's instructions and added to each well immediately before the luminescence reading was taken. Luminescence was measured at 1 min intervals for 10 min on a plate reader and reported as relative light units (RLU). For quantitative comparison of LgBiT-SmBiT interactions, the peak values at the 2-3 min time point were used. Concentration of compounds used in NanoBiT assay: 10 μM (Apt-1, ICCB-19 or ICCB-19i).

[5] = molecular target: T4, GST-TRADD-C (Homo sapiens, UniProt Q15628); assay: Thermal shift assay with GST-TRADD-C; type: binding; settings: GST-TRADD-C 50 μM, compound 250 μM
T4 construct: cDNA encoding GST-tagged hTRADD (Full length or aa180-312); made in house; host or cells: mammalian cells (pEBG plasmid)
Method: To determine stability, purified proteins were made to a final concentration of […]. SYPRO Orange dye was added to the protein to make a final concentration of 2×. Compounds were added in the mix with a final concentration of 250 μM or as indicated and incubated at 4C for 1 h. The experiments were performed in 384-well plates specific for real-time PCR instrument with a total volume of 20 μl/well. The assay plate was covered with a sheet of optically clear adhesive to seal each well. The assay plate was centrifuged at 800×g for 2 min at 25C to collect solutions in the bottom of the well and remove bubbles. The assay plate was placed into the Applied Biosystems QuantStudio 6 Real-Time PCR System. The reaction was run from 25C, ramping up in increments of 0.05° C./s to a final temperature of 95C with fluorescence detection throughout the experiment to generate a dataset. Melting temperature of the protein (Tm) was determined by performing non-linear fitting of the dataset to a Boltzmann Sigmoidal curve in GraphPad Prism with the following equation: Y=Bottom+(Top-Bottom)/[1+exp(Tm-X/Slope)], where Y=fluorescence emission in arbitrary units; X=temperature; Bottom=baseline fluorescence at low temperature; Top=maximal fluorescence at top of the dataset; Slope=describes the steepness of the curve, with larger values denoting shallower curves.

T4 sequence (Q15628 180-312): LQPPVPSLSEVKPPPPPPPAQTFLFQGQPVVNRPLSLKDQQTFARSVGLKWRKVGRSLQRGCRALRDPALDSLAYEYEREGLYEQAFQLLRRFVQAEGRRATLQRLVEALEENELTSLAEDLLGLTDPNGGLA
T1 sequence (Q13546 whole entry, species assumed): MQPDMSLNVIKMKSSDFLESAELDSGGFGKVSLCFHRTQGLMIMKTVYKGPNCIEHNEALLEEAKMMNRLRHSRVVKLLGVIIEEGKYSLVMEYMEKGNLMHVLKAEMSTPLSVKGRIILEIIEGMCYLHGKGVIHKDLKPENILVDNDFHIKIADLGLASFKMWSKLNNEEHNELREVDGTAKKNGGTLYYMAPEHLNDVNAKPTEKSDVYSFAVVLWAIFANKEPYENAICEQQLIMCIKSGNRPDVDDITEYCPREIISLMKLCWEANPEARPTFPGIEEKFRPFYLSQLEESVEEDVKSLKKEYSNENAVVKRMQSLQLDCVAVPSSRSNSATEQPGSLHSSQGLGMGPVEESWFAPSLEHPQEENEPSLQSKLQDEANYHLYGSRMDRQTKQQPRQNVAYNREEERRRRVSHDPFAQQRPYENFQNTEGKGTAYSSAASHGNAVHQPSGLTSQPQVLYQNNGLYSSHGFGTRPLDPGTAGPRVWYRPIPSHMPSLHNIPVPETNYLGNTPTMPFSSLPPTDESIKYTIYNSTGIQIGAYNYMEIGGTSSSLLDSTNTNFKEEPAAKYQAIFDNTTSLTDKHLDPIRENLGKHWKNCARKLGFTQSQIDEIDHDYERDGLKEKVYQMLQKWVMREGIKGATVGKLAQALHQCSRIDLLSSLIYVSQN

Row | Structure (SMILES) | inhibition of activation of overexpressed RIPK1 [1] | degradation of long-lived proteins [2] | binding with TRADD-N by STD-NMR [3] | NanoBit interaction signal between LgBiT-TRADD-N and TRADD-C-SmBiT [4] | binding to GST-TRADD-C [5]
1 | CN1CCN=C1SC(C(=O)NC1CCCCCC1)c1ccccc1 (stereo not shown) [Compound 30] | cannot inhibit | effectively induced | could bind with TRADD-N | dose-dependently reduced | does not bind
2 | O=C(CSC1=NCCN1)NC1CCCCCC1 [ICCB-19] | cannot inhibit | effectively induced | could bind with TRADD-N | dose-dependently reduced | does not bind

— patent publication US20230219898A1, “COMPOUNDS AND METHODS FOR BLOCKING APOPTOSIS AND INDUCING AUTOPHAGY” (President and Fellows of Harvard College, priority 2020, published 2023)
